Laboratory results: patent US20250019671A1, “RECOMBINANT POLYPEPTIDE HAVING CARBOXYLIC ACID REDUCING ACTIVITY” (priority 2021, published 2025)

How the values were obtained:
[1] = tested on: Mycobacterium abscessus carboxylic acid reductase variant L342E; settings: literature value (Non Patent Literature 6); cited from earlier work
[2] = target: Mycobacterium abscessus carboxylic acid reductase variant W283R/A303M (modified carboxylic acid reductase 1), SEQ ID NO: 3 (Mycobacteroides abscessus, UniProt B1MLD7, A303M/W283R); settings: disodium adipate 0.1875-3 mM; 0.2 mM NADPH, 0.5 mM ATP, pH=8.0, 30° C.; mean of two independent studies
Excerpt: (§1) Examples of the recombinant polypeptide (also referred to as “modified carboxylic acid reductase”) having the amino acid sequence A according to the present invention are illustrated in FIG. 3 (modified carboxylic acid reductase 1, SEQ ID NO: 3) and FIG. 4 (modified carboxylic acid reductase 2, SEQ ID NO: 4). The modified carboxylic acid reductase 1 (consisting of the polypeptide set forth in SEQ ID NO: 3) illustrated in FIG. 3 has amino acid substitutions of W283R and A303M with respect to SEQ ID NO: 1. The modified carboxylic acid reductase 2 (consisting of the polypeptide set forth in SEQ ID NO: 4) illustrated in FIG. 4 has amino acid substitutions of W283R and L335F with respect to SEQ ID NO: 1. That is, in the modified carboxylic acid reductase 1, the amino acid residue at the position corresponding to position 283 and the amino acid residue at the position corresponding to position 303 are substituted with arginine and methionine, respectively, based on the amino acid sequence set forth in SEQ ID NO: 1. In the modified carboxylic acid reductase 2, the amino acid residue at the position corresponding to position 283 and the amino acid residue at the position corresponding to position 335 are substituted with arginine and phenylalanine, respectively, based on the amino acid sequence set forth in SEQ ID NO: 1.

[3] = tested on: Mycobacterium abscessus carboxylic acid reductase variant W283R/A303M (modified carboxylic acid reductase 1), SEQ ID NO: 3
Excerpt: as §1

[4] = tested on: Mycobacterium abscessus carboxylic acid reductase variant G418E; settings: literature value (Non Patent Literature 6); cited from earlier work
O=C(O)CCCCC(=O)O = experiment: purified protein, by the assay type; settings: 0.2 mM NADPH, 0.5 mM ATP, 10 mM MgCl2, 100 mM HEPES potassium buffer pH=8.0, 30° C., mean of two independent studies
[5] = other: disodium adipate 3.125-50 mM

In the case of `O=C(O)CCCCC(=O)O` [adipic acid, hexanedioic acid], the Kcat [1] is given as 2.72 ± 0.09 s⁻¹, the Km [1] is given as 56.6 mM and the Kcat [2] is given as 3.53 s⁻¹. For the same compound, the Vmax [2] was 24.8 µmol/L/min, the “Km of the mutant enzyme for adipic acid compared to the existing variant carboxylic acid reductases (L342 and G418E mutants)” value ([3]; W283R/A303M mutant vs literature L342 and G418E mutants) was 1/17 and the “Km of the mutant enzyme for adipic acid relative to that of the wild-type enzyme” value ([3]; W283R/A303M mutant vs wild-type enzyme) was 1/20. For the same compound, the Km [4] was 18.7 mM.
“Mycobacterium abscessus carboxylic acid reductase variant W283R/A303M (modified carboxylic acid reductase 1), SEQ ID NO: 3 (Mycobacteroides abscessus ATCC 19977; A303M/W283R)” showed a Km (O=C(O)CCCCC(=O)O; other: disodium adipate 0.1875-3 mM) of 1.06 mM.
For “Mycobacterium abscessus carboxylic acid reductase, wild-type, SEQ ID NO: 1 (Mycobacteroides abscessus ATCC 19977)”, the Km (O=C(O)CCCCC(=O)O; [5]) was 23.3 mM, the Vmax (O=C(O)CCCCC(=O)O; [5]) was 18.1 µM/min and the kcat (O=C(O)CCCCC(=O)O; [5]) was 1.68 s⁻¹.
